The test system of data set [1] is male ICR mice. The experiment in a line: Mice tail suspension test. It is filed as in vivo. The procedure: Through intragastric administration, 10 mL·kg^−1 of each sample (physiological saline for the blank control group) is administrated. After 1 h of the treatment, the mouse is held with a medical tape at a position around 2 cm from the tip of its tail and hung upside-down in the suspension cage with its head 5 cm away from the bottom of the cage. The observation starts right after the mouse is suspended for 2 min and continues for 4 min. The time during which the mouse is immobile (no struggling or only tiny movements of its body/limbs) in this 4 min is accumulated (IT, immobility time). The percentage of the improvement is calculated according to the equation: Improvement %=[IT (blank control group)−IT (compound treatment group)]/IT (blank control group)×100%

For data set [2], the system named is male Kunming mice. The experiment in a line: Mice forced swimming test. The data set is classed as in vivo. The procedure: Through intragastric administration, 10 mL·kg^−1 of each sample (physiological saline for the blank control group) is administrated. The mice are pre-screened for swimming one day before the actual test. The mouse is placed into water (25° C., 10 cm deep) in a glass tank (height 20 cm, diameter 14 cm) and forced to swim for 6 min. Those who stop swimming at around 70-160 s are chosen for the actual test which starts 24 h later. After 1 h of the administration, the forced swimming test is performed by placing the animal into the above-mentioned environment to swim for 6 min. The accumulative immobility time for the last 4 min is recorded. Data is statistically analyzed with t-test.

Data set [3] is described as follows: Acute toxicity experiment (single oral gavage). The conditions noted are these: mouse, in vivo, po.
Data set [4] concerns Histidine auxotroph mutant of mouse salmonella TA97, TA98, TA100 and TA102. It is filed as cell-based. The text has this:
5. […] 6. Bacterial Reverse Mutation Test of Compounds VI-1 VI-2 and VI16 • Strains: Histidine auxotroph mutant of mouse salmonella TA97, TA98, TA100 and TA102. • Test method: The one reported in Maron DM et al: (1983) Mutay Res. 113, 173-216 is used. • Results: The test consists of two parts, i.e., −S9 and +S9. […] No bacteriostatic actions to all the strains are observed at all the other dosages, and the growth background is good.

Data set [5] deals with NA Transporter (hNAT) (Homo sapiens, UniProt P23975). The data set is described as follows: Inhibition of [3H]-NA reuptake in HEK 293 cells stably expressing hNAT. Particulars: HEK293, read-out: NA Reuptake Inhibition.
Sequence of NA Transporter (hNAT) (P23975 whole entry): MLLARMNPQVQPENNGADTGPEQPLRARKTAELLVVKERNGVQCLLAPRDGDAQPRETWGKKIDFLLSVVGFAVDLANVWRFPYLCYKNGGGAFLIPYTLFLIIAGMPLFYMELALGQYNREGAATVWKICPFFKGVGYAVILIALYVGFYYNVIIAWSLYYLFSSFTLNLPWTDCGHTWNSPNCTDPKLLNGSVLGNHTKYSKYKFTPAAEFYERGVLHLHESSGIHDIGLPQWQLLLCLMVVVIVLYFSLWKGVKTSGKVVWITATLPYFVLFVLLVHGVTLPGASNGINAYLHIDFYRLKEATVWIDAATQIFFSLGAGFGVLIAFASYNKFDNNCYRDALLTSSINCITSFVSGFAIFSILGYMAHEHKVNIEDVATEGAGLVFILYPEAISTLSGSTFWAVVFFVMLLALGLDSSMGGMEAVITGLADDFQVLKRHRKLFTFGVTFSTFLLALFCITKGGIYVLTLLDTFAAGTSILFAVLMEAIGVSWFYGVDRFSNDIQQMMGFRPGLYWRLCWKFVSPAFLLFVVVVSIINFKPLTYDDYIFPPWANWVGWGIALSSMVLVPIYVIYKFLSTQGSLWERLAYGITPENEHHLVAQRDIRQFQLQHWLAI
Data set [6] concerns the target DA Transporter (hDAT) (Homo sapiens, UniProt Q01959). The data set is described as follows: Inhibition of [3H]-DA reuptake in HEK 293 cells stably expressing hDAT. The conditions noted are these: HEK293, read-out: DA Reuptake Inhibition.
For data set [7], the target named is 5-HT Transporter (hSERT) (Homo sapiens, UniProt P31645). The experiment in a line: Inhibition of [3H]-5-HT reuptake in HEK 293 cells stably expressing hSERT.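 Note: compound preincubated 10 min at 30 °C, then 10 min uptake, filter-bound radioactivity counted by scintillation, inhibition relative to total (blank) minus non-specific (positive control) uptake.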
Sequence of 5-HT Transporter (hSERT) (P31645 whole entry): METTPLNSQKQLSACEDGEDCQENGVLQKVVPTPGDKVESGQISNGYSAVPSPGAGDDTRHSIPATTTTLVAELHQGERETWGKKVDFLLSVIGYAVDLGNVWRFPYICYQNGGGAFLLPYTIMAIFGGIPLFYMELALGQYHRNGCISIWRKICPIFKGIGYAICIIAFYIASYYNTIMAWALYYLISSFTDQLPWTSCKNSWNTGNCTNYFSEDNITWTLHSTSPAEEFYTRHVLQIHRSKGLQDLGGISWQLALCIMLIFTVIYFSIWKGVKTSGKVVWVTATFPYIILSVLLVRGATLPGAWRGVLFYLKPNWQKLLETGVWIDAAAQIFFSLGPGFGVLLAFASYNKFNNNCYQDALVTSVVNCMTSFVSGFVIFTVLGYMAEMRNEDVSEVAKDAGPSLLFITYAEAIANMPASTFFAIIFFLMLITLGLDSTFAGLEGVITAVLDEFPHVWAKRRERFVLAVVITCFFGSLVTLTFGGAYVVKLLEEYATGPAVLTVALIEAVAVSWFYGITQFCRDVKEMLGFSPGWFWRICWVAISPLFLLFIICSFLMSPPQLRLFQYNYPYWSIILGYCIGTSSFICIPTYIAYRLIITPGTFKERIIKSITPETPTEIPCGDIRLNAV

The text below walks through data of patent US8962621B2 (Shanghai Institute of Pharmaceutical Industry, priority 2010, dated 2015).

Sequence of DA Transporter (hDAT) (Q01959 whole entry): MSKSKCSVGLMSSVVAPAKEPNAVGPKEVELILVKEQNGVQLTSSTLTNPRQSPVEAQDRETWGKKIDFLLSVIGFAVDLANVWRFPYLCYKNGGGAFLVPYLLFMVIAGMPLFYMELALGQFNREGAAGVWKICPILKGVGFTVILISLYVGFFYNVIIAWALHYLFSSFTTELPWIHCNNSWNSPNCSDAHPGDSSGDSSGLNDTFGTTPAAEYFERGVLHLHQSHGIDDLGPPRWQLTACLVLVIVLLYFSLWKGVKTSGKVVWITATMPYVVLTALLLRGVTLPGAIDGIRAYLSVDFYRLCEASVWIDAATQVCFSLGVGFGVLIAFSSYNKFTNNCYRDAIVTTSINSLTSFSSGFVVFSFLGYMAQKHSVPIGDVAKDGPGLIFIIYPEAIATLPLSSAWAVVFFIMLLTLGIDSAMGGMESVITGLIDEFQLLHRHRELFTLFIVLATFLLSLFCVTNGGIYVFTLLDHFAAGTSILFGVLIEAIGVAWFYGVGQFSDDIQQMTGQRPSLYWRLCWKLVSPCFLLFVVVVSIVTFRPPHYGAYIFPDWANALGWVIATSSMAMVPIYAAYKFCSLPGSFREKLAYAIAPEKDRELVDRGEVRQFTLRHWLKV

On to `CCN(CC)CCC(c1ccc(Cl)c(Cl)c1)N1CCCC1` (stereo not drawn) [VI-1, N,N-diethyl-3-(3,4-dichlorophenyl)-3-(pyrrolidin-1-yl)-propylamine], for which the “IT (sec), immobility time” value in data set [1] (20.0 mg/kg single intragastric administration, 1 h before test, 4 min observation, n=12) turned out to be 48.17 ± 38.29 s; in data set [2] (20.0 mg/kg single intragastric administration, 1 h before test, last 4 min of 6 min, n=12), 57.1 ± 37.8 s. Further, the “Improvement (%)” value in data set [1] (20.0 mg/kg single oral administration, versus blank control IT) was 51.44%. For the same compound, the “effect on immobility time in the tail suspension test (in words)” value in data set [1] (20 mg/kg, efficacy similar to Venlafaxine) is on record as “significant reduction in the immobility time”. Also, in data set [2] (20 mg/kg), the “effect in the forced swimming test (in words)” value is recorded as “significant reduction in the immobility time”. For the same compound, the LD50 in data set [3] was determined as 1050 mg/kg. In addition, in data set [4] (5000 μg per dish, TA98 without S9 and TA97 with S9, none at other dosages), the bacteriostatic action result was “bacteriostatic action is showed”. Moreover, the Ames test result in data set [4] (TA97, TA98, TA100, TA102, with or without S9, all test dosages) is listed as “negative”. Moreover, the inhibition at 10 µM in data set [5] came to 101%; in data set [6], 101%; in data set [7] (HEK293, read-out: 5-HT Reuptake Inhibition) it was 98.2%. Further, the “inhibition effect towards the reuptake of 5-HT (in words)” value in data set [7] was “relatively strong inhibition effect”.
